We go through three molecules from patent US11685744B2, “CDK inhibitors and their use as pharmaceuticals” (Prelude Therapeutics, Incorporated, priority 2020, dated 2023).

Data set [1] deals with MCF7 adenocarcinoma cell line. Briefly: Cell proliferation studies in MCF7 cells (ATP-Lite, 10 days). Format: cell-based. Particulars: Homo sapiens, 240 h, read-out: PROLIFERATION_CTG_MCF7 IC50. In a few lines:
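Cells were seeded at 100 or 200 per well in DMEM with 10% FBS and dosed in quadruplicate over a 9-point 3-fold dilution. Incubation lasted 10 days at 37 °C, with media exchange and re-dosing on day 5. Viability was read by ATP-Lite luminescence and normalised to background and DMSO, giving IC50.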

A short description of data set [2]: Brain-to-plasma ratio (Kp) determination in Sprague-Dawley rats. To be noted: male, rat, brain (homogenate) versus plasma, po, 10 mg/kg.
Data set [3] has as its target CDK4/Cyclin D1 (Homo sapiens (Human), UniProt P11802). Briefly: CDK4/CyclinD1 enzymatic activity assay (TR-FRET). In kind it is biochemical. Particulars: ATP 2 mM, read-out: CDK4_D1 IC50. In a few lines:
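Insect-cell CDK4/Cyclin D1 (1 nM) with ULight-4E-BP1 (100 nM) and 2 mM ATP in HEPES pH 7.4 buffer, preincubated 20 min with compound (9-dose, 3-fold dilutions); 10 mM MgCl2 started the reaction, run 60 min at 37 °C. EDTA/Eu-anti-phospho-4E-BP1 TR-FRET detection; IC50 from 4-parameter Hill fit.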

Data set [4] concerns the target CDK6/Cyclin D1 (Homo sapiens (Human), UniProt Q00534). Briefly: CDK6/CyclinD1 enzymatic activity assay (TR-FRET). Format: biochemical. Particulars: ATP 250 μM, read-out: CDK6_D1 IC50. The method in brief:
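Insect-cell-expressed CDK6/Cyclin D1 (1 nM) phosphorylated ULight-4E-BP1 (100 nM) with 250 μM ATP in HEPES pH 7.4 buffer. After 20 min compound preincubation, reactions were started with 10 mM MgCl2 and run 60 min at 37 °C. EDTA-quenched samples were read by TR-FRET with Eu-anti-P-4E-BP1; IC50 from 9-dose 4-parameter fits.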

pIC50: −log10 of the molar value. A value given as a limit tells only on which side of the number the result lay.

Chain of CDK6/Cyclin D1 (Q00534 whole entry): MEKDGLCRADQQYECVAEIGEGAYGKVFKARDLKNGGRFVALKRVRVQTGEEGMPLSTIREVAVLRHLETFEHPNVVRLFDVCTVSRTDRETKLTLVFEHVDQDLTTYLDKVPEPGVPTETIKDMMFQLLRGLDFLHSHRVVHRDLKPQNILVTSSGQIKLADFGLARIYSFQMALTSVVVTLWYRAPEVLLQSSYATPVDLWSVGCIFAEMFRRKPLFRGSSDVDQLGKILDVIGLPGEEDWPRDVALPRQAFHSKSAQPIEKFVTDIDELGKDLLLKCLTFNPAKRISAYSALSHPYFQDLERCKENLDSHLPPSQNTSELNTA
Chain of CDK6/Cyclin D1 (P24385 whole entry partner): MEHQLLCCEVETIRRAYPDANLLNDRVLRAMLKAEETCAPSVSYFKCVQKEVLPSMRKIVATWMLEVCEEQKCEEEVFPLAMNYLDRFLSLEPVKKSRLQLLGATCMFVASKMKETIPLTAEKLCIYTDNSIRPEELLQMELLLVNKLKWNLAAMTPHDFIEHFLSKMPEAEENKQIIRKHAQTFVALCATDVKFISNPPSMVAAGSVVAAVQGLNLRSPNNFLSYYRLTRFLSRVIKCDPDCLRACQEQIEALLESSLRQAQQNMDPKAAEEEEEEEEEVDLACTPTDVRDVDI
Chain of CDK4/Cyclin D1 (P11802 whole entry): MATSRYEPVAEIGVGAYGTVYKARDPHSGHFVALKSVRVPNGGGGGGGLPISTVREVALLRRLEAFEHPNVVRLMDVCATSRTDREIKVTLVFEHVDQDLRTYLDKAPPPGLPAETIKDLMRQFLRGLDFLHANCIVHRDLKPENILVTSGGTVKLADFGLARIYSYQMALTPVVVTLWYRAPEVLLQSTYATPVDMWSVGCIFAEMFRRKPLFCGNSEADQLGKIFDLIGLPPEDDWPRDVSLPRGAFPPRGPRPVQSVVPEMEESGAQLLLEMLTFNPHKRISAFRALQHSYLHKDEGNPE
Chain of CDK4/Cyclin D1 (P24385 whole entry partner): as the sequence (P24385 whole entry partner) above

Consider `CCN1C2CC1CN(c1ccc(Nc3ncc(F)c(-c4cc5nc(C)n(C(C)C)c5s4)n3)nc1)C2` [Example 74, N-[5-(6-ethyl-3,6-Diazabicyclo[3.1.1]heptan-3-yl)pyridin-2-yl]-5-fluoro-4-(2-methyl-3-propan-2-ylthieno[2,3-d]imidazol-5-yl)pyrimidin-2-amine], for which the pIC50 is 6.70 to 7.70 in data set [1], at least 7.70 in data set [3] and 6.70 to 7.70 in data set [4]. The Kp at 4 h in data set [2] is under 1.
For `CCN1CCN(c2ccc(Nc3ncc(F)c(-c4cc5c(s4)c(C(C)C)cc[n+]5[O-])n3)nc2)CC1` [Example 50, N-[5-(4-Ethylpiperazin-1-yl)pyridin-2-yl]-5-fluoro-4-(4-oxido-7-propan-2-ylthieno[3,2-b]pyridin-4-ium-2-yl)pyrimidin-2-amine], the pIC50 in data set [1], in data set [3] and in data set [4] was at least 7.70 each time. Moreover, the Kp at 4 h in data set [2] is 1 to 3.
On to `CCN1CCC(c2ccc(Nc3ncc(F)c(-c4sc5c(ncn5C(C)C)c4C)n3)nc2)CC1` [Example 128, N-(5-(1-Ethylpiperidin-4-yl)pyridin-2-yl)-5-fluoro-4-(3-isopropyl-6-methyl-3H-thieno[2,3-d]imidazol-5-yl)pyrimidin-2-amine], for which the pIC50 in data set [1], in data set [3] and in data set [4] was at least 7.70 in each case. Moreover, the Kp at 4 h in data set [2] lay in the range of 1 to 3.
